Test results: publication PMC3913682, “A Monoclonal Antibody TrkB Receptor Agonist as a Potential Therapeutic for Huntington’s Disease” (PLoS ONE, 2014)

Assays:
striatal neurons = assay: Primary neuronal mHTT-induced cell death assay (cortico-striatal co-culture); format: cell-based, rat; conditions: for Protection of striatal neurons from mHTT-induced cell death (in words): Figure 7A
Excerpt: Cortical and striatal neurons were isolated from E18 rat embryos and separately transfected with a HTT exon1 fragment containing 73 CAG repeats (HTTN90Q73), together with a plasmid encoding for either a green AcGFP or a red AsRed fluorescent reporter before being plated on glial cells and treated with candidate pharmacological agents. After 5 days in culture, the number of fluorescent cells remaining was counted using an automated high content imaging and analysis platform (GE Healthcare InCell 2000) and any changes in neuronal survival quantified.

TrkB phosphorylation = assay: Western blot of TrkB phosphorylation in rat primary cortico-striatal co-cultures; format: cell-based; conditions: 15 minutes; non-transfected; Figure 7B, C
Excerpt: (§1) Clarified cell lysates were resolved by SDS-PAGE, blotted onto nitrocellulose membranes and immunoprobed with the relevant primary and secondary antibody combinations. Anti-pTrkB Tyr^516 (4619), anti-pTrkB Tyr^706/707 (4621), anti-pTrkB, Tyr^816 (4168), anti-pERK1/2 […], anti-pAKT […], anti-TrkB (4603), anti-AKT (4685) and anti-ERK1/2 (4695) were sourced from Cell Signalling Technologies. Anti-GAPDH (IMG-5143A) was obtained from Imgenex; Goat anti-rabbit HRP conjugate (PO448) and Goat anti-mouse HRP conjugate (PO447) were sourced from Dako. Goat anti-mouse 800CW conjugate and Goat anti-rabbit 680 conjugate were sourced from LI-COR. Immunoreactive signals were detected using enhanced chemiluminescence reagent (Amersham) or using the Odyssey infra-red reader.

[1] = Solubility assay under CellSensor assay conditions (HPLC-UV); format: physicochemical; conditions: for Concentration @ t = 0: 0 hours; for Concentration @ t = 0 / Concentration @ t = 3 / Concentration @ t = 7: assay buffer, 0.5% DMSO; for Concentration @ t = 3: 3 hours; for Concentration @ t = 7: 7 hours
Protocol: To align with the functional data, all compound samples and dilutions were prepared using the CellSensor® assay conditions that include: assay buffer, plates, sample volumes and the same timeframe. The assay incubation time was 7 hours. 0, 3 and 7 hour samples were analysed, in triplicate, in the final assay buffer (DMEM/Glutamax + NEAA + 20 mM Hepes pH7.4 + 0.01% BSA, final DMSO concentration 0.5%) at nominal compound concentrations of 5, 20 and 50 µM. […] The 7 and 3 hour samples were prepared at times which allowed simultaneous filtering and sample analysis.

[2] = system: Hippocampal HT-22 (TrkB-null cell line); set-up: method as in PMID 21651962; conditions: cited from earlier work
TrkB [3] = molecular target: T1, TrkB (Homo sapiens, UniProt Q16620); set-up: host or cells: CHO-K1; conditions: cited from earlier work
TrkB [4] = molecular target: T1, TrkB; set-up: method as in PMID 19549602; conditions: hippocampal neurons; cited from earlier work
TrkB [5] = molecular target: T1, TrkB; assay: CellSensor TrkB-NFAT-bla CHO-K1 reporter gene assay (agonist, antagonist, PAM modes); format: cell-based; set-up: host or cells: CHO-K1; conditions: Figure 6B; in presence of ~EC20 BDNF (40 pM)
Protocol: The assays were configured using Invitrogen CHO-K1 cell lines stably expressing a β-lactamase gene under the control of a NFAT promoter region and the relevant Trk (A, B or C) receptor (except for the Trk null cell line). The activity of the β-lactamase enzyme was quantified via FRET with a fluorescent substrate containing a β-lactam ring, according to manufacturer’s provided protocol. All CellSensor® NFAT-bla CHO-K1 cell lines were seeded into black 384w assay plates in CellSensor® plating media (growth media without antibiotics) at 5,000 cells in a volume of 25 µL per well; cells were incubated at 37°C, 5% CO2 overnight. Then, the assay plating media was removed and replaced with 32 µL of assay media (plating media without serum) and returned to the incubator for 1 hour. […] Test compounds were added (4 µL) and cells were returned to the incubator for 1 hour; dependent on assay mode (agonist, antagonist or positive allosteric modulator) assay media alone (agonist mode), assay media containing EC80 neurotrophin (antagonist mode) or assay media containing EC20 neurotrophin (PAM mode) were then added to the cells (4 µL) for a further 4 hour incubation. ToxBLAzer detection reagent was reconstituted according to the manufacturer’s instructions and 8 µL/well added to the assay plates, these were then incubated at room temperature protected from light for 2 hours. Levels of β-lactamase activity were then quantified by measuring the fluorescent intensity ratio between ^EX400nm/^EM535nm and ^EX400nm/^EM460nm and cytotoxicity quantified by measuring the fluorescence intensity at ^EX590nm/^EM665nm using a Perkin Elmer EnVision.

[6] = system: TrkB, AKT and ERK1/2 phosphorylation; assay: Western blot of TrkB, AKT and ERK1/2 phosphorylation in TrkB-NFAT-bla CHO-K1 cells; format: cell-based; conditions: LM22A-4 at low (10 µM) and high (83 µM), N-acetyl serotonin at high (83 µM) concentration; Figure 6E
Excerpt: as §1

TrkB [7] = system: TrkB; set-up: method as in PMID 20407211; conditions: hippocampal neurons; cited from earlier work

T1 sequence (Q16620 32-822): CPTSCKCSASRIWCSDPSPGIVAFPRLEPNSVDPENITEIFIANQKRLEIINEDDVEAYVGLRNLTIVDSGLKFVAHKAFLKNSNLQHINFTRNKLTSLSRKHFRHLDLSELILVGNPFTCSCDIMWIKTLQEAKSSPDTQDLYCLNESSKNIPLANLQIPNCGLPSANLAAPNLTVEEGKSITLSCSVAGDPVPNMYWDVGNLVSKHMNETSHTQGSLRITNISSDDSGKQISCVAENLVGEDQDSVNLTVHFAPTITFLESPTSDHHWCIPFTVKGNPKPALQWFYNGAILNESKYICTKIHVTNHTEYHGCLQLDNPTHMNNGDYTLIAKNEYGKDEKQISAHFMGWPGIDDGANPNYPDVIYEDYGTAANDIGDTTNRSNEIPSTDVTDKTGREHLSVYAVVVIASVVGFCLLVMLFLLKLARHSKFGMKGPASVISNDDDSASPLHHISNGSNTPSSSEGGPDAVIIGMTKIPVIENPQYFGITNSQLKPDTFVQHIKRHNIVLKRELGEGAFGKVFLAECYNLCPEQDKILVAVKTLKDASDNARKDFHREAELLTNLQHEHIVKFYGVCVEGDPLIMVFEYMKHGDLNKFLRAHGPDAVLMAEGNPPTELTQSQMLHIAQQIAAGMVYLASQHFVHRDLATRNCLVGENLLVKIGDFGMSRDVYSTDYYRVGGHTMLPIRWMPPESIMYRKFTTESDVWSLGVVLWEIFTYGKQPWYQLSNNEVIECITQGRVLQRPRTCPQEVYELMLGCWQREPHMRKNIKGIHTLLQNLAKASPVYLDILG

SMILES | Protection of striatal neurons from mHTT-induced cell death (in words) (striatal neurons) | Concentrations at which toxicity was evident (striatal neurons; rat cortico-striatal co-culture) | Induction of TrkB phosphorylation (in words) (TrkB phosphorylation) | Compound remaining in solution ([1]; beyond the tested lower concentration of 5 µM, NFAT assay solutions) | Concentration @ t = 0 ([1]; nominal concentration 5 µM) | Concentration @ t = 3 ([1]; nominal concentration 5 µM) | Concentration @ t = 7 ([1]; nominal concentration 5 µM) | Concentration @ t = 0 ([1]; nominal concentration 20 µM) | Concentration @ t = 3 ([1]; nominal concentration 20 µM) | Concentration @ t = 7 ([1]; nominal concentration 20 µM) | Concentration @ t = 0 ([1]; nominal concentration 50 µM) | Concentration @ t = 3 ([1]; nominal concentration 50 µM) | Concentration @ t = 7 ([1]; nominal concentration 50 µM) | Concentrations showing toxicity effects, HT-22 cell viability [2] | Published in vitro activity (in words) (TrkB [3]) | Published in vitro activity: Activity (TrkB [3]) | Potency relative to the cognate neurotrophin (less potent) (TrkB [4]) | PAM activity, NFAT reporter gene assay, PAM mode (in words) (TrkB [5]) | Basal phospho-ERK1/2 immunoreactive bands [6] | Induction of TrkB-Tyr516 phosphorylation (TrkB [7])
O=c1cc(-c2ccccc2)oc2c(O)c(O)ccc12 [7,8-dihydroxyflavone] | failed to mimic the ability of BDNF | ≥ 20 µM | failed to mimic the ability of BDNF | ~20% | 0.49 µM | 0.24 µM | 2.3 µM | 3.0 µM | 1.9 µM | 5.2 µM | 13 µM | 10 µM | 13 µM | above 20 µM | Neuronal TrkB agonist; Promotes neurogenesis | 10 to 250 nM | – | – | – | –
CN(C)CCC=C1c2ccccc2CCc2ccccc21 [Amitriptyline] | – | – | – | – | 3.7 µM | 4.3 µM | 3.2 µM | 7.6 µM | 7.1 µM | 5.9 µM | 33 µM | 27 µM | 27 µM | – | Neuronal TrkA/B agonist; Neuroprotective | 10 to 250 nM | ~100 fold | concentration-dependent TrkB inhibition | – | –
O=C(NCCO)c1cc(C(=O)NCCO)cc(C(=O)NCCO)c1 [LM22A-4] | failed to mimic the ability of BDNF | – | failed to mimic the ability of BDNF | – | 7.2 µM | 7.8 µM | 11 µM | 17 µM | 17 µM | 20 µM | 59 µM | 58 µM | 64 µM | – | TrkB agonist; Neuroprotective | 0.5 to 500 nM | – | – | absence of immunoreactive bands | ~30 % of the efficacy of BDNF
CC(=O)NCCc1c[nH]c2ccc(O)cc12 [N-acetyl serotonin] | – | – | – | – | 7.6 µM | 8.8 µM | 10 µM | 13 µM | 14 µM | 17 µM | 38 µM | 44 µM | 49 µM | – | Neuronal TrkB agonist | 100 nM | – | – | absence of immunoreactive bands | –
